In brackets after ≈: the same amount, converted by molar mass.
conditions: buffer; pH 7.4; 200.0 µM

Row | SMILES | solubility kinetic [µg/mL]
1 | CC[N+](CC)(CC)CC.[Cl-] | 20.3
2 | CCc1ccc(C(=O)OCC(=O)NC2CCCC2)cc1 | 11.6 (≈ 42.1 µM)
3 | O=C(NC1CCN(Cc2ccc(Cl)cc2Cl)CC1)c1ccccc1 | 2.3 (≈ 6.33 µM)
4 | O=C1CCN(S(=O)(=O)c2ccc(Br)cc2)CCN1 | 39.1 (≈ 117 µM)
5 | Cn1cc(CCC(=O)NCCCc2ccccc2)c2ccccc21 | 25.8 (≈ 80.5 µM)
6 | CN(C)/C=C(\C#N)S(=O)(=O)c1ccccc1 | > 35.4
7 | O=C(NCc1ccccc1)c1ccc(=O)oc1 | > 34.4
8 | O=C(Nc1ccc(Oc2ccccc2)cc1)N[C@@H](Cc1ccccc1)C(=O)O | > 56.5
9 | O=C(NC1CCCCC1)c1ccc(-c2ccccc2)cc1 | < 0.6
10 | COc1cc2[nH]c(C(=O)N3CCN(C)CC3)cc2c(OC)c1OC | 33.8 (≈ 101 µM)
11 | CCC(C)[C@H](NC(=O)N1CCC(C)CC1)C(=O)OC (stereo partly specified) | > 40.6
12 | CCOC(=O)c1c(N)sc(N)c1C(=O)OCC | 29.9 (≈ 116 µM)
13 | c1ccc(CCCN2CCN(c3ccccc3)CC2)cc1 | 24.3 (≈ 86.7 µM)
14 | O=C1C2CCCN2C(=S)N1c1ccc(Cl)cc1 (stereo unspecified) | > 40
15 | O=C(COc1cc(F)ccc1[N+](=O)[O-])NCCN1C(=O)CSC1=O | > 53.6
16 | Cc1ccccc1C(=O)NCC(=O)N1CCN(C/C=C/c2ccccc2)CC1 | > 56.6
17 | CN1C2CCC1CC(NC(=O)c1ccc([N+](=O)[O-])cc1)C2 (stereo unspecified) | > 43.4
18 | CC(=O)Nc1ccc(NC(=O)CCCc2ccccc2)cc1 | 22.9 (≈ 77.3 µM)
19 | O=C(Nc1ccccc1C(=O)N1CCCCC1)NC1CCCCC1 | > 49.4
20 | O=C(Nc1cccc(Br)c1)C1CCCC1 | > 40.2
21 | CC(OC(=O)CCOc1ccccc1)C(=O)Nc1ccc(Cl)cn1 (stereo unspecified) | 34.3 (≈ 98.3 µM)

Row | SMILES | solubility kinetic [µg/mL]
22 | Cc1ccccc1NC(=S)NCCSc1ccc(Cl)cc1 | 3.3 (≈ 9.79 µM)
23 | O=C(CN1c2cccc3cccc(c23)S1(=O)=O)Nc1c(F)c(F)c(F)c(F)c1F | 1.3 (≈ 3.03 µM)
24 | CN(CCO)CC(O)Cn1cnc2c1c(=O)n(C)c(=O)n2C.O=C(O)c1cccnc1 (stereo unspecified) | > 65.2
25 | COc1ccc(NC2(C#N)CCCCC2)cc1 | 12.4 (≈ 53.8 µM)
26 | O=C(NCC1CC1)c1cc([N+](=O)[O-])cc([N+](=O)[O-])c1 | > 39.8
27 | CCOC(=O)c1c(C)[nH]c(C)c1C=O | > 29.3
28 | O=S(=O)(c1ccc(Cl)s1)N1CCNCC1 | > 40
29 | Cc1ccccc1-c1nc2ccccc2c(=O)n1C | 35.8 (≈ 143 µM)
30 | CC1Cc2ccccc2N1C(=O)c1ccc2nccnc2c1 (stereo unspecified) | > 43.4
31 | CSc1nc2sc3c(c2c(=O)n1C)CCC3 | 2.6 (≈ 10.3 µM)
32 | CCOC(=O)CC(=O)CSc1nc(CC)c(C)cc1C#N | > 46
33 | CC(Sc1nncn1C)C(=O)Nc1ccc(S(N)(=O)=O)cc1 (stereo unspecified) | > 51.2
34 | Nc1nc(NCCc2ccccc2)nc(NCCO)c1[N+](=O)[O-] | 46.3 (≈ 145 µM)
35 | N#Cc1cccc(NS(=O)(=O)c2ccccc2Cl)c1 | > 43.9
36 | C=C1N(C)c2cc([N+](=O)[O-])c(N)cc2C1(C)C | > 35
37 | COC(=O)/C=C1/SC(=NC(=O)c2ccc(F)cc2)NC1=O | > 46.2
38 | CC(=O)c1ccc(NC(=O)COC(=O)CCC2CCCC2)cc1 | 17 (≈ 53.6 µM)
39 | O=C(COC(=O)/C=C/c1ccc(F)cc1)NCc1ccc2c(c1)OCO2 | 4.9 (≈ 13.7 µM)
40 | CCOC(=O)N1CCN(C(=O)CSc2nc3nc(C)cc(C)n3n2)CC1 | > 56.8
41 | O=C(O)c1ccccc1C(=O)Nc1c(-c2ccccc2)nc2ccccn12 | 49.6 (≈ 139 µM)
42 | CC12CC3CC(C1)CC(C(=O)NNC(=O)c1ccncc1)(C3)C2 | > 47

Row | SMILES | solubility kinetic [µg/mL]
43 | O=C(OCC(=O)c1ccc[nH]1)c1ccc2ccccc2n1 | 30 (≈ 107 µM)
44 | O=C(/C=C/c1ccco1)NC(=S)Nc1ccccc1 | 17.2 (≈ 63.2 µM)
45 | O=C(CN1CCCC1c1cccs1)Nc1cc(S(=O)(=O)N2CCCC2)ccc1Cl (stereo unspecified) | 1.6 (≈ 3.52 µM)
46 | NC(=O)c1ccc2nc(-c3ccccc3)c(-c3ccccc3)nc2c1 | 0.6 (≈ 1.84 µM)
47 | COc1cccc(NC(=S)N2CCC(Cc3ccccc3)CC2)c1 | 5.5 (≈ 16.2 µM)
48 | COc1ccccc1NCCC(=O)OCC(=O)Nc1ccccc1Cl | > 54.4
49 | O=C(NCCCc1nc2ccccc2[nH]1)c1ccc(F)cc1 | > 44.6
50 | Oc1ccc(Nc2nc(-c3ccccc3)nc3ccccc23)cc1 | 2.3 (≈ 7.34 µM)
51 | O=C(CSc1ncnc2sccc12)NC1CCS(=O)(=O)C1 (stereo unspecified) | > 51.5
52 | Cn1c(Cc2ccccc2)nnc1SCC(=O)NCCc1ccccc1 | > 55
53 | CC(=O)N1CCC(c2c[nH]c3ccccc23)CC1 | > 36.3
54 | CC1CCN(Cc2nc(Cl)c3c4c(sc3n2)CCC4)CC1 | 27.4 (≈ 85.1 µM)
55 | O=C1CNC(=O)/C1=C/c1ccc(Br)cc1 | 26.9 (≈ 101 µM)
56 | S=C1Cc2ccccc2C(c2ccc(Cl)cc2)N1 (stereo unspecified) | 4.9 (≈ 17.9 µM)
57 | O=C(O)/C=C/C(=O)NCc1csc2ccccc12 | 5.2 (≈ 19.9 µM)
58 | O=C(CN1CCCc2ccccc21)N1CCc2ccccc21 | 4.8 (≈ 16.4 µM)
59 | COc1ccc(C2CC3(O)CC(C#N)(C(=O)N3)C2(C#N)C#N)cc1 (stereo unspecified) | > 48.3
60 | CCOc1ccc(C(=O)N2CCN(c3ccccc3)CC2)cc1 | 46.5 (≈ 150 µM)
61 | Cn1c(CC(=O)NNC(=O)c2cccnc2)nc2ccccc21 | > 46.4
62 | O=C(O)CCCCCNCc1c(Cl)cccc1Cl | 41.6 (≈ 143 µM)
63 | O=C(NCc1ccc(Cl)cc1)N1CCN(Cc2ccccc2)CC1 | > 51.6

Further lines, results first:

Row | solubility kinetic [µg/mL] | SMILES
64 | 22.8 (≈ 69.8 µM) | Cc1cccc(N2CCN(C(=O)/C=C/c3cccs3)CC2C)c1 (stereo unspecified)
65 | 0.4 (≈ 1.14 µM) | CCn1cc(C(=O)NCc2ccc(OC)cc2)c(=O)c2ccc(C)nc21
66 | 4 (≈ 12.2 µM) | CCOC(=O)c1sc(S(C)(=O)=O)c2c1CCc1conc1-2
67 | 4.9 (≈ 12.2 µM) | COc1cc(OC)c(C(=O)OCC(=O)c2ccc3c(c2)NC(=O)CO3)cc1OC
68 | > 49 | COC(=O)/C(=N\OCc1ccc(C#N)cc1)c1c(C)nn(C)c1C
69 | 48.6 (≈ 132 µM) | CCc1ccc(S(=O)(=O)Nc2ccc(C)c(NS(C)(=O)=O)c2)cc1
70 | 38.4 (≈ 144 µM) | CCC(=O)Nc1ccc2oc(-c3cccnc3)nc2c1
71 | 18.9 (≈ 67.8 µM) | O=C(CNC(=O)c1ccco1)Nc1cccc(Cl)c1
72 | 0.6 (≈ 1.76 µM) | O=C(NCc1cccs1)c1cccn2c(=O)c3sccc3nc12
73 | 17.4 (≈ 60.6 µM) | O=C(CN1C(=O)c2ccccc2C1=O)Nc1nccs1
74 | 40.9 (≈ 147 µM) | Cc1ccc(S(=O)(=O)c2ncccc2[N+](=O)[O-])cc1
75 | < 0.4 | COCc1cc(C)nc(SCc2ccc(Br)cc2)c1C#N
76 | 1.1 (≈ 3.09 µM) | COC(=O)c1ccc(Nc2nc(-c3ccncc3)nc3ccccc23)cc1
77 | > 47.9 | CCn1c(SCC(=O)NC(C)(C)C)nnc1-c1ccncc1
78 | 19.7 (≈ 64.7 µM) | Cc1cc(C)c(S(=O)(=O)NCCc2ccncc2)c(C)c1
79 | 28.1 (≈ 73.2 µM) | COC(=O)c1sc(-c2ccc(Cl)cc2)cc1NC(=O)COCC(=O)O
80 | 46.5 (≈ 148 µM) | Cc1cccc(OCC(=O)NCCNC(=O)c2cnccn2)c1
81 | 2.7 (≈ 8.62 µM) | CCOC(=O)c1cccc(NC(=O)c2ccc3c(c2)OCO3)c1
82 | > 48 | Cc1onc(-c2ccccc2Cl)c1C(=O)N1CCN(C)CC1
83 | 8.6 (≈ 29.2 µM) | Cc1ccc(N2CC(=O)N(c3ccc(C)cc3)CC2=O)cc1

Row | solubility kinetic [µg/mL] | SMILES
84 | 0.6 (≈ 1.7 µM) | C=C1C(C(=O)Nc2ccc(OC)cc2)C1C(=O)Nc1ccc(OC)cc1 (stereo unspecified)
85 | 39.8 (≈ 134 µM) | O=C(NCCc1ccccc1)c1ccc2c(c1)OCCCO2
86 | 1.1 (≈ 4.24 µM) | CC(=O)NC(=S)Nc1cccc2ccc(C)nc12
87 | 0.4 (≈ 1.27 µM) | CCCNC(=S)Nc1cc2oc3ccccc3c2cc1OC
88 | 44.2 (≈ 148 µM) | Cc1[nH]c(=O)c(S(=O)(=O)c2ccccc2)c(C)c1Cl
89 | 28.9 (≈ 124 µM) | Cc1cccc(C(=O)OCc2cncs2)c1
90 | > 43.2 | COc1ccc(C(C)=O)cc1Cn1c(=O)cc(C)[nH]c1=O
91 | 0.4 (≈ 1.36 µM) | COc1ccc(/C=C(\C#N)C(=O)Nc2cccc(C)n2)cc1
92 | 42.1 (≈ 147 µM) | CCN(CCO)Cc1cc(=O)oc2cc3c(cc12)CCC3
93 | 0.9 (≈ 3.01 µM) | COC(=O)Nc1nc2ccc(Sc3ccccc3)cc2[nH]1
94 | > 36.3 | Cc1cc(C(=O)N2CCc3ccccc3C2)no1
95 | 1.2 (≈ 6.31 µM) | Cc1[nH]c2c([N+](=O)[O-])cccc2c1C
96 | > 50.3 | CNC(=O)c1cc(S(=O)(=O)NCc2ccncc2)ccc1OC
97 | 26.5 (≈ 140 µM) | Cc1cc(=S)c2cccc(C)c2[nH]1
98 | 17.7 (≈ 87.1 µM) | C/C=C/C(=O)N(CC)c1ccccc1C
99 | 11.7 (≈ 36.3 µM) | COc1ccc(C(=O)Nc2cccc3nc(C)ccc23)c(OC)c1
100 | > 43.9 | CC(=O)C1=NOC2C(=O)N(c3ccc(Cl)cc3)C(=O)C12 (stereo unspecified)
101 | 8.4 (≈ 28 µM) | O=c1oc2ccccc2c(Nc2ccc(F)cc2)c1[N+](=O)[O-]
102 | 45.5 (≈ 132 µM) | COc1cc(OC)cc(C(=O)NCCc2ccc(OC)c(OC)c2)c1
103 | 1.2 (≈ 4.44 µM) | Cc1ccc2oc(C(=O)Nc3cc(C)on3)c(C)c2c1

Row | solubility kinetic [µg/mL] | SMILES
104 | 42.7 (≈ 117 µM) | CCN(C(=O)Cc1c(C(=O)O)n(CC)c2ccccc12)c1ccccc1C
105 | > 50 | Cc1c2c(n3c(nc4ccccc43)c1C#N)N(CCCN(C)C)CC2
106 | 41.9 (≈ 128 µM) | COc1ccc(S(=O)(=O)NC(C)C(=O)N2CCCC2)cc1C (stereo unspecified)
107 | > 45.9 | O=C(Nc1ccc(C(=O)O)cc1)Nc1cccc2ccccc12
108 | 15.9 (≈ 56.7 µM) | CCCn1c(C(O)c2ccc(C)cc2)nc2ccccc21 (stereo unspecified)
109 | > 50 | CCOc1ccc(N2CC(C(=O)NC3=NCCS3)CC2=O)cc1 (stereo unspecified)
110 | 0.6 (≈ 1.86 µM) | CCOc1ccc(NC(=O)c2cc(OC)nc3ccccc23)cc1
111 | 43.2 (≈ 148 µM) | Cc1nc(-c2cccc(Br)c2)ccc1C(=O)O
112 | > 40.7 | COc1cc2ccccc2cc1C(=O)N1CCOCC1
113 | 0.5 (≈ 1.65 µM) | COc1ccc2nc(NC(=O)c3ccccc3F)sc2c1
114 | 40.9 (≈ 116 µM) | CCOC(=O)CNC(=O)CSc1nc(-c2cccc(C)c2)ns1
115 | > 41.9 | Nc1cc(N)nc(SCC(=O)NCc2ccco2)n1
116 | 5.8 (≈ 21.5 µM) | COc1ccc(C(=O)CNc2ccc(C)cc2C)cc1
117 | < 0.2 | CCc1nonc1NC(=O)c1oc2ccc(C)cc2c1C
118 | > 47.7 | Cc1cccnc1NC(=O)CCNC(=O)c1ccccc1Cl
119 | > 42.9 | Cc1cccc(C(=O)NCCCNC(=O)c2ccco2)c1
120 | 22.8 (≈ 73 µM) | CC(=O)Nc1ccc(C(=O)Nc2ccc3c(c2)OCCO3)cc1
121 | > 38.7 | Cc1ccc(N2CC(C(=O)NC3CC3)CC2=O)cc1 (stereo unspecified)
